According to patent publication US20160184279A1, “METHODS OF TREATING PAIN AND/OR ITCH WITH SMALL MOLECULE INHIBITORS TARGETING AN mTOR PATHWAY” (Transderm, Inc., priority 2014, published 2016):

Assay: Solubility of rapamycin in solvents
Type: physicochemical
From the text: Formulations for topical or transdermal delivery systems which effectively administer mTOR inhibitors to treat pain can be challenging to make. One such challenge can be caused by the structures of the various mTOR inhibitors and the associated solubility and/or stability challenges that exist for many of these compounds. […] Benzyl alcohol has been identified as a solvent that can effectively solubilize rapamycin. In particular, benzyl alcohol can support 20 wt % solutions and higher of rapamycin. […] For example, formulations utilizing Span 80 and/or Tween 20 as surfactants were only able to achieve benzyl alcohol loading of 20 wt % or less.

- solubility in aqueous compositions, ethanolic compositions, triglycerides, alkanes, and silicone systems: poorly solubilized
- solubility in benzyl alcohol (benzyl alcohol solution): ≥ 20 wt %
Structure (SMILES): CO[C@H]1C[C@@H]2CC[C@@H](C)[C@@](O)(O2)C(=O)C(=O)N2CCCC[C@H]2C(=O)O[C@H]([C@H](C)C[C@@H]2CC[C@@H](O)[C@H](OC)C2)CC(=O)[C@H](C)/C=C(\C)[C@@H](O)[C@@H](OC)C(=O)[C@H](C)C[C@H](C)/C=C/C=C/C=C/1C [rapamycin]
